From patent US5510240A, “Method of screening a peptide library” (The Arizona Board of Regents, priority 1993, dated 1996)
Where no end group is shown, it is not given here.

What was measured:
anti-β-endorphin MAb = test: bead library screening with biotinylated anti-β-endorphin MAb and streptavidin-alkaline phosphatase; assay type: binding; conditions: recycled pentapeptide library, 16 hours
Method: Prior to using the same random peptide library to screen with anti-β-endorphin MAb, all the blue beads that had stained for streptavidin-alkaline phosphatase alone were removed. The remaining beads were then treated with 8M guanidine hydrochloride to remove any bound protein. This recycled library was then mixed with biotinylated anti-β-endorphin MAb (anti-β-endorphin, clone 3-E7, was obtained commercially from Boehringer Mannheim, Indianapolis, Ind.) for 16 hours. After extensive washing, a secondary step with streptavidin-alkaline phosphatase was used to trigger the staining reaction for the ELISA. […] Peptide analogues with various carboxyl terminus of these ligand leads were synthesized and their affinity (Ki) was determined using ^3 H!Leu-enkaphalin (New England Nuclear, Boston, Mass.) as the labelled ligand and the unlabelled peptides as the competing ligand (anti-β-endorphin assay, Section 10.1.2, supra).

[1] = peptide-bead reduction of nitro blue tetrazolium without exogenous enzyme; assay type: biochemical; conditions: absence of exogenous enzyme
Source text: The peptide library was exposed to the chromogenic substrate nitro blue tetrazolium (NBT) chloride in the absence of exogeneous enzyme under conditions conducive to product formation, and positive reacting beads were identified. These beads were selected and sequenced.

[2] = UV/VIS irradiation cleavage of ONb linker peptides, HPLC analysis; assay type: physicochemical; conditions: in water
Method: Each peptide was irradiated for 1 and 3 hours with ultraviolet (UV) and visible (VIS) light in 0.3 ml of water or 3/7 mixture of chloroethanol:dichloromethane. A total of 16+16 experiments were run and assayed.
After exposure the supernatant was filtered off, lyophilized and re-dissolved to equal volumes of MeOH (0.3 ml). The products were analyzed on the HPLC.

anti-v-mos = conditions: known property of the commercial antibody; cited from earlier work
[3] = test system: anti-v-mos monoclonal antibody; test: bead staining with anti-v-mos monoclonal antibody; assay type: binding, mouse; conditions: antibody 1 ug/ml; ABTS substrate with H2O2, 15 minutes
Method: The long v-mos beads were mixed with a thousand fold excess of the short v-mos beads. Two milliliters of the purified anti-v-mos monoclonal antibody (1 μg/ml) in PBS with 0.1% polyoxyethylenesorbitan monolaurate (TWEEN 20®) was added to the mixture of long and short v-mos beads and incubated at room temperature for one hour with gentle mixing. The beads were then washed for one hour with gentle mixing. The beads were then washed on a small polypropylene disposable column (obtained from Isolab) where the beads were retained by the frit. The beads were then mixed with 2 ml of a secondary antibody at 1:2000 dilution for one hour. After washing, the beads were poured into a polystyrene petri dish and allowed to settle. […]
The beads were washed on a small polypropylene disposable column (obtained from Isolab) which retained the beads on a frit. […] The v-mos beads were readily distinguished.
Approximately 230,000 beads were screened with an anti-v-mos alkaline phosphatase conjugate. […] Twenty-four of these beads were physically selected out and the amino acid sequence of eleven of them was determined. […]

streptavidin = molecular target: T1, streptavidin (Streptomyces avidinii, UniProt P22629); test: biotin inhibition of LHPQF-resin staining by streptavidin-alkaline phosphatase; assay type: binding
T1 construct: purchased Pierce, Rockford, Ill
T1 sequence (P22629 25-183, species assumed): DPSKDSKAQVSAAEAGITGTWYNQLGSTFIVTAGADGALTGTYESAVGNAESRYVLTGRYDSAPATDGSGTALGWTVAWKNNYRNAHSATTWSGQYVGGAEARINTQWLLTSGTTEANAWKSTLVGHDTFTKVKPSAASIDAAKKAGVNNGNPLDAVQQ
Method: FIG. 8. […] A: 100 nM; B: 10 nM; C: 1 nM; and D: 0.1 nM biotin. Blank beads (β-Ala-aminocaproic acid-resin) were mixed 1:1 with the LHPQF-resin prior to incubating with streptavidin-alkaline phosphatase to serve as an internal negative control.
The LHPQF-resin was then mixed with streptavidin-alkaline phosphatase in the presence of varying concentration of biotin. […] The inhibition study establishes that the HPQ consensus sequence binds to the biotin-binding site of streptavidin.

In the case of “YGGMV (not fully specified) [tested with carboxyl terminus OH, NH2, βA-OH, βA-NH2]”, the “identification as ligand in anti-β-endorphin MAb bead screening” value (“identification as ligand” below) (anti-β-endorphin MAb) is reported as “identified”.

In the case of “YGGFT (not fully specified) [tested with carboxyl terminus OH, NH2, βA-OH, βA-NH2]”, the “identification as ligand” value (anti-β-endorphin MAb) is reported as “identified”.

In the case of “YGGLQ (not fully specified) [tested with carboxyl terminus OH, NH2, βA-OH, βA-NH2]”, the “identification as ligand” value (anti-β-endorphin MAb) is reported as “identified”.

With PNNNH (also: bead-bound) [PNNNH-bead] the “reduction of NBT to dark blue diformazan” value [1] was “capable of reducing NBT to a dark blue diformazan pigment”.

With “YGGFA (not fully specified) [tested with carboxyl terminus OH, NH2, βA-OH, βA-NH2]” the “identification as ligand” value (anti-β-endorphin MAb) was “identified”.

In the case of “Fmoc-Trp-Tyr(OBu^t)-Phe-ONb-βAla-ACA-EDA-PepSyn K (WYFX; Fmoc, OBut, ONb-βAla-ACA-EDA-PepSyn K resin linkage) [peptide i]”, the cleavage products [2] is reported as “cleaved to a single product”.

With “YGGLS (not fully specified) [tested with carboxyl terminus OH, NH2, βA-OH, βA-NH2]” the “identification as ligand” value (anti-β-endorphin MAb) was “identified”.

In the case of GSVYKA [short v-mos peptide], the “affinity of anti-v-mos antibody” value (anti-v-mos) is given as “negligible affinity”.

With “YGGFQ (not fully specified) [tested with carboxyl terminus OH, NH2, βA-OH, βA-NH2]” the “identification as ligand” value (anti-β-endorphin MAb) was “identified”.

For “Gly-Phe-Gly-Ser-Val-Tyr-aminocaproic acid-β-Ala-resin [PAM resin/v-mos peptide beads]”, the “bead color after anti-v-mos antibody and labelled secondary antibody” value [3] was “turned dark green”.

With `O=C(O)CCCC[C@@H]1SC[C@@H]2NC(=O)N[C@@H]21` [biotin] the “effect on the staining of LHPQF-resin mimotope beads by streptavidin-alkaline phosphatase” value (streptavidin; FIG. 8, 100, 10, 1 and 0.1 nM biotin) was “concentration-dependent inhibitory effect”, the “staining of the LHPQF-resin” value (streptavidin; biotin at 0.1 nM) was “no effect” and the “staining of the LHPQF-resin” value (streptavidin; biotin at 1.0 nM) was “partially inhibited”. For the same compound, the “staining of the LHPQF-resin” value (streptavidin; biotin at 10 nM) was “partially inhibited” and the “staining of the LHPQF-resin” value (streptavidin; biotin at 100 nM) was “completely blocked”.
